Source: the NIST ThermoML archive (doi:10.1021/je050050p)

Assay: xn = mol fraction of the nth substance listed
Conditions: Liquid, Vibrating tube method

CN(C)C=O [dimethylformamide] + O=C=O
Conditions | mass density [kg/m3]
313.15 K, 15999 kPa, x2 = 0.2876 | 958.91
313.15 K, 16006 kPa, x2 = 0.4461 | 967.34
313.15 K, 16007 kPa, x2 = 0.4268 | 966.35
313.15 K, 17000 kPa, x2 = 0.4268 | 967.35
313.15 K, 17005 kPa, x2 = 0.2876 | 959.75
313.15 K, 17007 kPa, x2 = 0.4461 | 968.38
313.15 K, 17985 kPa, x2 = 0.4461 | 969.42
313.15 K, 17994 kPa, x2 = 0.4268 | 968.36
313.15 K, 18009 kPa, x2 = 0.2876 | 960.57
313.15 K, 19015 kPa, x2 = 0.4461 | 970.46
313.15 K, 19017 kPa, x2 = 0.4268 | 969.38
313.15 K, 19021 kPa, x2 = 0.2876 | 961.39
313.15 K, 19994 kPa, x2 = 0.4268 | 970.35
313.15 K, 20001 kPa, x2 = 0.2876 | 962.21
313.15 K, 20007 kPa, x2 = 0.4461 | 971.48
313.15 K, 20983 kPa, x2 = 0.4268 | 971.33
313.15 K, 20996 kPa, x2 = 0.4461 | 972.47
313.15 K, 21004 kPa, x2 = 0.2876 | 963
313.15 K, 22022 kPa, x2 = 0.2876 | 963.82
313.15 K, 22022 kPa, x2 = 0.4461 | 973.5
313.15 K, 22024 kPa, x2 = 0.4268 | 972.32
313.15 K, 22993 kPa, x2 = 0.4461 | 974.47
313.15 K, 23016 kPa, x2 = 0.2876 | 964.58
313.15 K, 23020 kPa, x2 = 0.4268 | 973.26
313.15 K, 23989 kPa, x2 = 0.2876 | 965.35
313.15 K, 23996 kPa, x2 = 0.4461 | 975.45
313.15 K, 24016 kPa, x2 = 0.4268 | 974.2
313.15 K, 24992 kPa, x2 = 0.4461 | 976.41
313.15 K, 24996 kPa, x2 = 0.4268 | 975.14
313.15 K, 25004 kPa, x2 = 0.2876 | 966.15
313.16 K, 5026 kPa, x2 = 0.4502 | 955.28
313.16 K, 5988 kPa, x2 = 0.4502 | 956.32
313.16 K, 6028 kPa, x2 = 0.4068 | 955.07
313.16 K, 7004 kPa, x2 = 0.4502 | 957.42
313.16 K, 7010 kPa, x2 = 0.4068 | 956.12
313.16 K, 7999 kPa, x2 = 0.4502 | 958.57
313.16 K, 8028 kPa, x2 = 0.4068 | 957.19
313.16 K, 9005 kPa, x2 = 0.4068 | 958.24
313.16 K, 9031 kPa, x2 = 0.4502 | 959.69
313.16 K, 10012 kPa, x2 = 0.4502 | 960.79
313.16 K, 10041 kPa, x2 = 0.4068 | 959.33
313.16 K, 10994 kPa, x2 = 0.4068 | 960.3
313.16 K, 11036 kPa, x2 = 0.4502 | 961.92
313.16 K, 11990 kPa, x2 = 0.4068 | 961.32
313.16 K, 12022 kPa, x2 = 0.4502 | 963.01
313.16 K, 12989 kPa, x2 = 0.4068 | 962.33
313.16 K, 13014 kPa, x2 = 0.4502 | 964.13
313.16 K, 14015 kPa, x2 = 0.4502 | 965.19
313.16 K, 14027 kPa, x2 = 0.4068 | 963.34
313.16 K, 14992 kPa, x2 = 0.4068 | 964.31
313.16 K, 15005 kPa, x2 = 0.4502 | 966.24
313.16 K, 15994 kPa, x2 = 0.4068 | 965.3
313.16 K, 16019 kPa, x2 = 0.4502 | 967.32
313.16 K, 16994 kPa, x2 = 0.4068 | 966.27
313.16 K, 17003 kPa, x2 = 0.4502 | 968.34
313.16 K, 17999 kPa, x2 = 0.4502 | 969.4
313.16 K, 18006 kPa, x2 = 0.4068 | 967.25
313.16 K, 18978 kPa, x2 = 0.4068 | 968.19
313.16 K, 19033 kPa, x2 = 0.4502 | 970.43
313.16 K, 19978 kPa, x2 = 0.4502 | 971.41
313.16 K, 20043 kPa, x2 = 0.4068 | 969.19
313.16 K, 21007 kPa, x2 = 0.4502 | 972.47
313.16 K, 21020 kPa, x2 = 0.4068 | 970.1
313.16 K, 22002 kPa, x2 = 0.4068 | 970.98
313.16 K, 22023 kPa, x2 = 0.4502 | 973.48
313.16 K, 23040 kPa, x2 = 0.4502 | 974.49
313.16 K, 23059 kPa, x2 = 0.4068 | 971.98
313.16 K, 24007 kPa, x2 = 0.4502 | 975.45
313.16 K, 24032 kPa, x2 = 0.4068 | 972.87
313.16 K, 24995 kPa, x2 = 0.4502 | 976.42
313.16 K, 25024 kPa, x2 = 0.4068 | 973.76
323.07 K, 9001 kPa, x2 = 0.6235 | 928.72
323.07 K, 10031 kPa, x2 = 0.6235 | 931.44
323.07 K, 11013 kPa, x2 = 0.6235 | 933.93
323.07 K, 12042 kPa, x2 = 0.6235 | 936.47
323.07 K, 13033 kPa, x2 = 0.6235 | 938.86
323.07 K, 13992 kPa, x2 = 0.6235 | 941.1
323.07 K, 14972 kPa, x2 = 0.6235 | 943.31
323.07 K, 15993 kPa, x2 = 0.6235 | 945.57
323.07 K, 16998 kPa, x2 = 0.6235 | 947.71
323.07 K, 18015 kPa, x2 = 0.6235 | 949.84
323.07 K, 18988 kPa, x2 = 0.6235 | 951.84
323.07 K, 20012 kPa, x2 = 0.6235 | 953.89
